Laboratory results from patent US8466089B2, “Pyrazole compounds, process for their production and herbicides containing them” (Ishihara Sangyo Kaisha, Ltd., priority 2008, dated 2013).
Read-outs that look alike come from different tables or passages of the source.

Tests used:
Assay type in all cases: in vivo
[1] = system: giant foxtail (Setaria faberi Herrm.); assay: Test Example 5, foliar treatment versus Reference Compounds; details: 4.0 to 4.5 leaf stage, 20th day after application, read-out: Growth inhibition rate (%) (20th day after application) Giant foxtail
Source text: (§1) Upland field soil was put into a 1/1,000,000 hectare pot, and seeds of various plants were sown. When the respective plants reached predetermined leaf stage ((1) velvetleaf (Abutilon theophrasti MEDIC.): 3.0 to 3.5 leaf stage, (2) giant foxtail (Setaria faberi Herrm.): 4.0 to 4.5 leaf stage, (3) green foxtail (Setaria viridis L.): 5.0 to 5.5 leaf stage, and (4) corn (Zea mays L.): 4.0 to 4.3 leaf stage, a wettable powder of compound No. 2-1 of the above-mentioned present invention, a wettable powder of the above-mentioned Reference Compound 1 and a wettable powder of the above-mentioned Reference Compound 2, prepared in accordance with a conventional preparation method, were weighed so that the active ingredients became the prescribed amounts, and diluted with water in an amount corresponding to 300 liter per 1 hectare (containing 0.5 vol % of an agricultural spreader (Destiny HC: WINFIELD SOLUTIONS by LLC). The spray solutions thus prepared were applied for foliar treatment by a small sprayer.
(§2) On the 7th to 20th day after application, the state of growth of the respective plants was visually observed, and the herbicidal effect was evaluated by a growth inhibition rate (%) of 0 (equivalent to the non-treated area) to 100% (complete kill).

[2] = system: corn (Zea mays L.); assay: as above; details: 4.0 to 4.3 leaf stage, 7th day after application, read-out: Growth inhibition rate (%) (7th day after application) Corn
Source text: as §1, §2

[3] = system: green foxtail (Setaria viridis L.); assay: as above; details: 5.0 to 5.5 leaf stage, 18th day after application, read-out: Growth inhibition rate (%) (18th day after application) Green foxtail
Source text: as §1, §2

[4] = system: velvetleaf (Abutilon theophrasti MEDIC.); assay: as above; details: 3.0 to 3.5 leaf stage, 20th day after application, read-out: Growth inhibition rate (%) (20th day after application) Velvet leaf
Source text: as §1, §2

[5] = system: sorgo (Sorghum bicolor Moench) (var.: Lucky Sorgo); assay: Test Example 6, soil column downward movement, sorgo bioassay; details: 14th day after sowing
Procedure: Soil (sterilized soil:sand=3:1) was packed (4 L) into a column (9.5 cm in diameter×40 cm in height, application area: 0.007 m^2), and tap water was dropped from above by a Peristaltic pump before application of the herbicide for the purpose of maintaining the soil moisture to be uniform. Then, 10 mL of a spray solution prepared so that each agent (Compound No. 2-1, the above Reference Compounds 1 and 2) would be at a concentration corresponding to 250 g/ha was dropwise applied by a pipette. After application, water was dropped again at a rate of 400 mL/hr for about 3 hours by means of a Peristaltic pump. After the dropping, the column was left to stand for 1 day, and then the column was vertically evenly divided and seeds of sorgo (Sorghum bicolor Moench) (var.: Lucky Sorgo) were sown in a row. On the 14th day after sowing, the state of growth of the plant was visually observed at 3 cm intervals from the application point of the agent, whereby the germination and the degree of growth were evaluated by a growth inhibition rate (%) of 0 (equivalent to the non-treated area) to 100% (complete kill) to obtain the results in Table 17.
From the above results, the growth inhibition rates of Reference Compounds No. 1 and No. 2 are observed in depths deeper than that of Compound No. 2-1. […] Whereas, Compound No. 2-1 stayed at a shallow portion of soil (in a layer of from 0 to 9 cm).

## COCCOc1c(S(C)(=O)=O)ccc(C(=O)c2cnn(C(C)C)c2O)c1Cl [Reference Compound 2]
[1]
  inhibition at 3.5 g/ha: 0%
[2]
  inhibition at 90 g/ha: 25%
[3]
  inhibition at 7 g/ha: 35%
[4]
  inhibition at 3.5 g/ha: 50%
[5]; depth 0-3 cm, read-out: Growth inhibition rate (%) against sorgo, Depth (cm) from the applied surface 0-3
  inhibition at 250 g/ha: 48%
[5]; depth 3-6 cm, read-out: Growth inhibition rate (%) against sorgo, Depth (cm) from the applied surface 3-6
  inhibition at 250 g/ha: 45%
[5]; depth 6-9 cm, read-out: Growth inhibition rate (%) against sorgo, Depth (cm) from the applied surface 6-9
  inhibition at 250 g/ha: 47%
[5]; depth 9-12 cm, read-out: Growth inhibition rate (%) against sorgo, Depth (cm) from the applied surface 9-12
  inhibition at 250 g/ha: 43%
[5]; depth 12-15 cm, read-out: Growth inhibition rate (%) against sorgo, Depth (cm) from the applied surface 12-15
  inhibition at 250 g/ha: 58%
[5]; depth 15-18 cm, read-out: Growth inhibition rate (%) against sorgo, Depth (cm) from the applied surface 15-18
  inhibition at 250 g/ha: 55%
[5]; depth 18-21 cm, read-out: Growth inhibition rate (%) against sorgo, Depth (cm) from the applied surface 18-21
  inhibition at 250 g/ha: 61%
[5]; depth 21-24 cm, read-out: Growth inhibition rate (%) against sorgo, Depth (cm) from the applied surface 21-24
  inhibition at 250 g/ha: 63%
[5]; depth 24-27 cm, read-out: Growth inhibition rate (%) against sorgo, Depth (cm) from the applied surface 24-27
  inhibition at 250 g/ha: 35%
[5]; depth 27-30 cm, read-out: Growth inhibition rate (%) against sorgo, Depth (cm) from the applied surface 27-30
  inhibition at 250 g/ha: 8%
